# In patent US7638509B2, “Diene compounds and formulations” (priority 2003, dated 2009):
# “Also recorded” adds a separate entry of the source.
# Key:
# wild-type AR [1] = target: T1, wild-type AR (Homo sapiens, UniProt P10275); experiment: Anti-DHT activity on AR transcription, MMTV-Luc reporter in PC-3 cells transfected with AR; format: cell-based; set-up: expressed in transfected cells; host or cells: PC-3; details: for suppression of DHT-induced AR transactivation (in words): PC-3, 1 nM DHT, compound at 0.01, 0.1 or 1 μM; for antagonistic effects on DHT-enhanced AR transactivation (in words): compounds related to ADEK, cell line not given
# T1 sequence (P10275 1-920): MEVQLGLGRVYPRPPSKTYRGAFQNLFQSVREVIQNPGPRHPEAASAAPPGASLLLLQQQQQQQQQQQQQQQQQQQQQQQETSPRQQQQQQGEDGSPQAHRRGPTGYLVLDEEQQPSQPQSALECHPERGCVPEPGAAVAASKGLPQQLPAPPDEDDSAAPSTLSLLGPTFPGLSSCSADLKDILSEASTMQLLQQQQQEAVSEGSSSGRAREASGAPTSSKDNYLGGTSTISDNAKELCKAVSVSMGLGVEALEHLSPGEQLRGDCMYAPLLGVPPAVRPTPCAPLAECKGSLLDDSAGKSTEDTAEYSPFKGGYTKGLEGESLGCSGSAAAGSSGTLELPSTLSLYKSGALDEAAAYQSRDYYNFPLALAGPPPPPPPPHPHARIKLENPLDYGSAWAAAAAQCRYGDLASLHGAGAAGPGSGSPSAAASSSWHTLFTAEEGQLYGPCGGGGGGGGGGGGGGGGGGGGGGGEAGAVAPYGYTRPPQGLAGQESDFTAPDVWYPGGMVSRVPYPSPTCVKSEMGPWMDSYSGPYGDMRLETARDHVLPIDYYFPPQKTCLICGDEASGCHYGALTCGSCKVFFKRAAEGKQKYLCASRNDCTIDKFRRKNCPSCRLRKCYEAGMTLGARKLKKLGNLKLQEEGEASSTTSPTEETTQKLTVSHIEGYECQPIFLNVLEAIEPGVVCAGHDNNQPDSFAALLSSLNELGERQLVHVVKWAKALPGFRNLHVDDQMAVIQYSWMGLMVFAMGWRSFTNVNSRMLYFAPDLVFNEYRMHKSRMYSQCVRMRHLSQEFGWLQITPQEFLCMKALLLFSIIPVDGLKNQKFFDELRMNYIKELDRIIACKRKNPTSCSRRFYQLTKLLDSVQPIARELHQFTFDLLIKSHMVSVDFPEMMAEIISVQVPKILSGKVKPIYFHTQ
# Experimental: (§1) Cell Culture, Transfection, and Reporter Gene Assay. The human prostate cancer cell lines, LNCaP, PC-3, and DU145, and non-prostate cancer cell line COS-1 were maintained in RPMI or Dulbecco's modified Eagle's medium (DMEM) (Life Technologies) supplemented with 10% fetal bovine serum (FBS). Transfections and luciferase (Luc) assays were performed as previously described (Miyamoto, H., Yeh, S., Wilding, G. & Chang, C. (1998) Proc. Natl. Acad. Sci. USA 95, 7379-7384; Miyamoto, H., Rahman, M., Takatera, H., Kang, H.-Y., Yeh, S., Chang, H.-C., Nishimura, K., Fujimoto, N. & Chang, C. (2002) J. Biol. Chem. 277, 4609-4617). Briefly, cells seeded to reach a density of 50-60% confluence in 12 well tissue culture plates were transfected with 1.5 μg of DNA according to “SuperFect transfection” instructions (Qiagen). After 2-3 h incubation, cells were treated with medium supplemented with charcoal-stripped FBS containing either ethanol or ligands for 24 h. The cells were then harvested and whole cell extracts were used for Luc assay. The Luc activity was determined using a Dual-Luciferase Reporter Assay System (Promega) and luminometer.
# (§2) To accomplish these studies, PC-3 cells were transfected with the wild-type AR expression plasmid pSG5-AR and MMTV-Luc. […] The Luc activity was measured relative to that of ethanol treatment (set as 1-fold). Values from the mean±SD of at least three determinations were used. PC-3 cells were transfected with the pSG5-AR and MMTV-Luc. […] Values from the mean±SD of at least three determinations were obtained.
# wild-type AR [2] = target: T1, wild-type AR; experiment: AR transcriptional activity (androgenic activity), MMTV-Luc reporter in PC-3 cells transfected with wild-type AR; format: cell-based; set-up: expressed in transfected cells; host or cells: PC-3; details: PC-3, wild-type AR plasmid + MMTV-Luc, compound at 1000 nM, 24 h
# Experimental: as §1
# Anti-DHT Effect of DHEA Derivatives with Low Androgenic Activity on AR Transcription. Test compounds as antiandrogenic compounds, were characterized by analysis of their ability to induce AR transcriptional activity in the AR-negative PC-3 cell line. The Luc activity was determined in the cell extracts with transient transfection of wild-type AR plasmid and androgen response element-reporter plasmid (mouse mammary tumor virus (MMTV)-Luc). After transfection, the cells were treated with various compounds at 0.1-1,000 nM.
# as §2
# PSA = PSA expression in LNCaP cells, Western blot; format: cell-based, human; details: 48 h
# Experimental: Western Blot. […] An antibody for -actin (Santa Cruz Biotechnology) was used as the internal control. Blots were quantitated by Collage software (Fotodyne).
# The 33-kDa protein was quantitated. β-Actin expression was used as an internal control. […] The mean±SD of three separate experiments was determined. […] Total cell number was counted by hemocytometer. The mean of at least three determinations was determined.
# LNCaP cells = experiment: LNCaP cell growth, cell count by hemocytometer; format: cell-based, human; details: 1 nM DHT; 1 μM compound in presence of DHT
# Experimental: The mean±SD of three separate experiments was determined. […] Total cell number was counted by hemocytometer. The mean of at least three determinations was determined.
Compound,suppression of DHT-induced AR transactivation (in words) (wild-type AR [1]),further results
"CC12CCC3(CC1=CC(O)C1C2CCC2(C)C1CCC21OCCO1)OCCO3 (stereo not drawn) [7α-hydroxyandrost-5-ene-3,17-bis ethylene ketal]",less effective; also recorded: little or no capacity,
CCC(=O)O[C@H]1CC[C@H]2[C@@H]3C(=O)C=C4CC5(CC[C@]4(C)[C@H]3CC[C@]12C)OCCO5 [17β-propionony-7-oxoandrost-5-en-3-ethylene ketal],little or no capacity,
"C[C@]12CC[C@H]3[C@@H]([C@H](O)CC4C[C@@H](O)CC[C@@]43C)[C@@H]1CC[C@@H]2O (stereo partly drawn) [3β,7α,17β-trihydroxyandrostane]",little or no capacity,
"CC(=O)O[C@H]1C=C[C@@]2(C)C(=CC[C@@H]3[C@@H]2CC[C@]2(C)C(=O)CC[C@@H]32)C1 [No. 14, 3β-acetoxyandrost-1,5-diene-17-one]",modest suppression,induction on AR transcription as compared to mock treatment (wild-type AR [2]): marginal induction; antagonistic effects on DHT-enhanced AR transactivation (in words) (wild-type AR [1]): did not show significant antagonistic effects
"CC(O)(CS(=O)(=O)c1ccc(F)cc1)C(=O)Nc1ccc(C#N)c(C(F)(F)F)c1 (stereo not shown) [casodex, bicalutamide]",,DHT-induced PSA expression decreased to (DHT = 100%) (PSA; 1 μM compound + 1 nM DHT): 58%
"C[C@]12CC[C@H]3[C@@H]([C@H](O)C=C4C[C@@H](O)CC[C@@]43C)[C@@H]1CC[C@@H]2O [No. 5, 3β,7α,17β-trihydroxyandrost-5-ene]",modest suppression,induction on AR transcription as compared to mock treatment (wild-type AR [2]): marginal induction
"C[C@]12CC[C@H]3[C@@H](CCC4=C[C@@H](O)CC[C@@]43C)[C@@H]1CC[C@@H]2O [3β,17β-dihydroxyandrost-4-ene]",less effective,
"COC(=O)[C@H]1CC[C@@]2(C)C(=CC(=O)[C@@H]3[C@@H]2CC[C@]2(C)C(=O)[C@H](C(=O)OC)C[C@@H]32)C1 [3β,16α-bis-carbomethoxyandrost-5-ene-7,17-dione]",less effective,
C[C@]12C=C[C@H](O)CC1=CC[C@@H]1[C@@H]2CC[C@@]2(C)[C@H]1CCC21OCCO1,,melting point: 138 to 140 °C
"C[C@]12C=CC(=O)C=C1CC[C@@H]1[C@@H]2CC[C@]2(C)C(=O)CC[C@@H]12 [androst-1,4-diene-3,17-dione]",less effective,antagonistic effects on DHT-enhanced AR transactivation (in words) (wild-type AR [1]): did not show significant antagonistic effects
"CC(=O)O[C@H]1C=C[C@@]2(C)C(=CC[C@H]3[C@@H]4CC[C@H](O)[C@@]4(C)CC[C@@H]32)C1 [3β-acetoxy-17β-hydroxyandrost-1,5-diene]",less effective,antagonistic effects on DHT-enhanced AR transactivation (in words) (wild-type AR [1]): did not show significant antagonistic effects
"C[C@]12CC[C@H]3[C@@H]([C@@H](O)C=C4CC5(CC[C@@]43C)OCCO5)[C@@H]1CC[C@@H]2O [7β,17β-dihydroxyandrost-5-ene-3-ethylene ketal]",less effective,
"C[C@]12C=C[C@H](O)CC1=CC[C@@H]1[C@@H]2CC[C@]2(C)C(=O)CC[C@@H]12 [No. 16, 3β-hydroxyandrost-1,5-diene-17-one]",modest suppression,induction on AR transcription as compared to mock treatment (wild-type AR [2]): marginal induction; antagonistic effects on DHT-enhanced AR transactivation (in words) (wild-type AR [1]): did not show significant antagonistic effects
"C[C@]12CCC(=O)C[C@@H]1CC[C@@H]1[C@@H]2CC[C@]2(C)[C@@H](O)CC[C@@H]12 [DHT, dihydrotestosterone, reference compound]",,"endogenous PSA expression over mock treatment (PSA; 1 nM DHT or 1 μM HF, casodex, ADEK in absence of DHT): 4.3 fold; effect on LNCaP cell growth, DHT alone or compound with DHT (in words) (LNCaP cells): significantly increased cell growth"
C[C@]12CC[C@H](O)C[C@@H]1CC[C@@H]1[C@@H]2CC[C@]2(C)C(=O)[C@H](Br)C[C@@H]12 [16α-bromoepiandrosterone],little or no capacity,
"CC(=O)O[C@H]1CC[C@H]2[C@@H]3CC(=O)C4=CC(=O)CC[C@]4(C)[C@H]3CC[C@]12C [17β-acetoxyandrost-4-ene-3,6-dione]",little or no capacity,
"C[C@]12CC[C@H]3[C@@H]([C@@H](O)C=C4C[C@@H](O)CC[C@@]43C)[C@@H]1CC[C@@H]2O [3β,7β,17β-trihydroxyandrost-5-ene]",little or no capacity,
